Test results published in patent US9988400B2 (Genentech, Inc., priority 2013, dated 2018).

biological target: T1, HEK cells stably transfected with tetracycline inducible hNR1 and hNR2A (Homo sapiens, UniProt Q05586+Q12879); experiment: Assay 1: Cell-Based Assay, cytosolic calcium response to positive allosteric modulators (with 30 μM glycine and 300 nM L-glutamate, EC30); conditions: Table 2; cytosolic calcium response, with 30 μM glycine and 300 nM L-glutamate (EC30); — = no plateau was reached
T1 construct: expressed in transfected cells; host or cells: HEK cells, stably transfected, tetracycline/doxycycline inducible
Procedure, shortened: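 Cells induced 24 h with 7.5 μg mL^−1 doxycycline plus 500 μM (+)-ketamine, loaded 60 min at 37 °C with calcium dye in Mg-free HBSS (1.8 mM Ca, probenecid, 10 μM (+)-ketamine, pH 7.15). Peak RFU over 5 min after compound addition, scaled to 100 μM L-glutamate (100%) and 0 μM (0%); four-parameter Hill fit for EC50, max % if no plateau.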

T1 sequence (Q12879 23-1464, other chains not shown): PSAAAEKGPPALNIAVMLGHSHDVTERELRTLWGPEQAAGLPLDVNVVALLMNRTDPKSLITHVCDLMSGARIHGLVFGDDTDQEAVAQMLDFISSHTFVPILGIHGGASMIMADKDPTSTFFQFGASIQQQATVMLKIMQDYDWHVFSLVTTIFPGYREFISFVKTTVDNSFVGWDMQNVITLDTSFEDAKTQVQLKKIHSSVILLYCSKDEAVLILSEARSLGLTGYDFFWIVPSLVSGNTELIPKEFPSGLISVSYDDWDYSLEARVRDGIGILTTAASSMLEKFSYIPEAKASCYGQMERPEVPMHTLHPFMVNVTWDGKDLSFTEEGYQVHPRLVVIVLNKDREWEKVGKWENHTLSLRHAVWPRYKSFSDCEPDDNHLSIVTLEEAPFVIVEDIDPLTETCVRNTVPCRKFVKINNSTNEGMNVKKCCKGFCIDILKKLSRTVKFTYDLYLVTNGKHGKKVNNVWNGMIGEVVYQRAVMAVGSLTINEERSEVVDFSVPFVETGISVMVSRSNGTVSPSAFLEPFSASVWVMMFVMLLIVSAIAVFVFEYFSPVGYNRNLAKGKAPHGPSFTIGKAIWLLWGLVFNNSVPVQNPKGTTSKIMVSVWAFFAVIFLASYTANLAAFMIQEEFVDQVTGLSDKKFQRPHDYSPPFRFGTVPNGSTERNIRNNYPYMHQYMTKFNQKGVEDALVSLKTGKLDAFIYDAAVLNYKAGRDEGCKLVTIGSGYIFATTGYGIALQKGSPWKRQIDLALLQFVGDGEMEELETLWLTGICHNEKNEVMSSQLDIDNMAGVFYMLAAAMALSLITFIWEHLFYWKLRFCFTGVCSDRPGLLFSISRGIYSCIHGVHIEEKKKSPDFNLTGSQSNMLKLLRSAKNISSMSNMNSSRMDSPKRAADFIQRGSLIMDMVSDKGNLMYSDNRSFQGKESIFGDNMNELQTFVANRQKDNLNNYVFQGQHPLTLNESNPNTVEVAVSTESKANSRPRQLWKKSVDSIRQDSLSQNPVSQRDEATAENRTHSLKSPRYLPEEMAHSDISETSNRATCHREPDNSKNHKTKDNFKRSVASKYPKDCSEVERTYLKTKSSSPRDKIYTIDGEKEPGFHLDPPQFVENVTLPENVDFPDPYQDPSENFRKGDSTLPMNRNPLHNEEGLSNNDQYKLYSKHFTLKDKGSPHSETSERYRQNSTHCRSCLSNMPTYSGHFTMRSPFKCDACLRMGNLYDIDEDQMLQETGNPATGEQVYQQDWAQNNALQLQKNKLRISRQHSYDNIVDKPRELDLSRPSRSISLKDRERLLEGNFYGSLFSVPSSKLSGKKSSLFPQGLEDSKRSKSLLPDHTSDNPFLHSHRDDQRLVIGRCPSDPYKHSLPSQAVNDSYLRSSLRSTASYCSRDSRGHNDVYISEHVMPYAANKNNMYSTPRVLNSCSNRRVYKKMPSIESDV

EC50 [µM]	Compound
8.2	CNC(=O)c1c(C)sc2nc(Cc3cc(Cl)ccc3Cl)cc(=O)n12 [Example 21.48, 7-[(2,5-dichlorophenyl)methyl]-N,2-dimethyl-5-oxo-thiazolo[3,2-a]pyrimidine-3-carboxamide]
33.1	CCNC(=O)c1c(C)sc2nc(Cc3cc(C#N)ccc3CCF)cc(=O)n12 [Example 21.61, 7-(5-cyano-2-(2-fluoroethyl)benzyl)-N-ethyl-2-methyl-5-oxo-5H-thiazolo[3,2-a]pyrimidine-3-carboxamide]
4.2	CNC(=O)c1c(C)sc2nc(Cc3cccc(CF)c3F)cc(=O)n12 [Example 21.68, 7-[[2-fluoro-3-(fluoromethyl)phenyl]methyl]-N,2-dimethyl-5-oxo-thiazolo[3,2-a]pyrimidine-3-carboxamide]
18.1	Cc1sc2nc(Cc3cccc(C#N)c3)cc(=O)n2c1C1CC1C#N (stereo not drawn) [Example 23.1, 3-((3-(2-cyanocyclopropyl)-2-methyl-5-oxo-5H-thiazolo[3,2-a]pyrimidin-7-yl)methyl)benzonitrile]
2.6	Cc1sc2nc(Cc3cccc(C#N)c3F)cc(=O)n2c1C1CC1C#N (stereo not drawn) [Example 23.2, 3-((3-(2-cyanocyclopropyl)-2-methyl-5-oxo-5H-thiazolo[3,2-a]pyrimidin-7-yl)methyl)-2-fluorobenzonitrile]
14.8	Cc1sc2nc(Cc3cccc(C#N)n3)cc(=O)n2c1C1CC1C#N (stereo not drawn) [Example 23.3, 6-((3-(2-cyanocyclopropyl)-2-methyl-5-oxo-5H-thiazolo[3,2-a]pyrimidin-7-yl)methyl)picolinonitrile]
15.3	Cc1sc2nc(Cc3cccc(C#N)c3F)cc(=O)n2c1C1CC1 [Example 24.4, 3-((3-cyclopropyl-2-methyl-5-oxo-5H-thiazolo[3,2-a]pyrimidin-7-yl)methyl)-2-fluorobenzonitrile]
8.9	Cc1sc2nc(Cc3cccc(C#N)c3F)cc(=O)n2c1-c1ccco1 [Example 24.8, 2-fluoro-3-((3-(furan-2-yl)-2-methyl-5-oxo-5H-thiazolo[3,2-a]pyrimidin-7-yl)methyl)benzonitrile]
18.7	Cc1sc2nc(Cc3cccc(C#N)c3F)cc(=O)n2c1C(=O)NCC(F)(F)F [Example 25.1, 7-(3-cyano-2-fluorobenzyl)-2-methyl-5-oxo-N-(2,2,2-trifluoroethyl)-5H-thiazolo[3,2-a]pyrimidine-3-carboxamide]
15.2	Cc1sc2nc(Cc3cccc(C(F)(F)F)c3F)cc(=O)n2c1C(=O)NCC#N [Example 25.2, N-(cyanomethyl)-7-(2-fluoro-3-(trifluoromethyl)benzyl)-2-methyl-5-oxo-5H-thiazolo[3,2-a]pyrimidine-3-carboxamide]
9	Cc1sc2nc(Cc3cccc(C(F)(F)F)c3F)cc(=O)n2c1C#N [Example 26.2, 7-(2-fluoro-3-(trifluoromethyl)benzyl)-2-methyl-5-oxo-5H-thiazolo[3,2-a]pyrimidine-3-carbonitrile]
30.4	O=c1cc(Cn2nc(C(F)(F)F)cc2C2CC2)nc2sc3c(n12)CCC3 [Example 27.5, 10-{[5-cyclopropyl-3-(trifluoromethyl)-1H-pyrazol-1-yl]methyl}-7-thia-1,9-diazatricyclo[6.4.0.0^{2,6}]dodeca-2(6),8,10-trien-12-one]
26.5	CC1(C)CCc2sc3nc(Cn4nc(C(F)(F)F)cc4C4CC4)cc(=O)n3c21 [Example 27.7, 10-{[5-cyclopropyl-3-(trifluoromethyl)-1H-pyrazol-1-yl]methyl}-3,3-dimethyl-7-thia-1,9-diazatricyclo[6.4.0.0^{2,6}]dodeca-2(6),8,10-trien-12-one]
30.4	CC1(C)CCc2sc3nc(Cn4nc(C5CC5)cc4C(F)(F)F)cc(=O)n3c21 [Example 27.8, 10-{[3-cyclopropyl-5-(trifluoromethyl)-1H-pyrazol-1-yl]methyl}-3,3-dimethyl-7-thia-1,9-diazatricyclo[6.4.0.0^{2,6}]dodeca-2(6),8,10-trien-12-one]
29.1	CC(=O)c1c(C)sc2nc(Cc3cccc(C#N)c3F)cc(=O)n12 [Example 27.10, 3-((3-acetyl-2-methyl-5-oxo-5H-thiazolo[3,2-a]pyrimidin-7-yl)methyl)-2-fluorobenzonitrile]

same assay, conditions: Table 2; responses scaled relative to 100 μM L-glutamate maximal response (100%) and 0 μM L-glutamate (0%)

Max % [%]	Compound
100	CNC(=O)c1c(C)sc2nc(Cc3cc(Cl)ccc3Cl)cc(=O)n12 [Example 21.48, 7-[(2,5-dichlorophenyl)methyl]-N,2-dimethyl-5-oxo-thiazolo[3,2-a]pyrimidine-3-carboxamide]
82.3	CNC(=O)c1c(C)sc2nc(Cc3cccc(OC(F)(F)F)c3)cc(=O)n12 [Example 21.49, N,2-dimethyl-5-oxo-7-[[3-(trifluoromethoxy)phenyl]methyl]thiazolo[3,2-a]pyrimidine-3-carboxamide]
76.1	CNC(=O)c1c(C)sc2nc(Cc3cc(C#N)ccc3F)cc(=O)n12 [Example 21.50, 7-[(5-cyano-2-fluoro-phenyl)methyl]-N,2-dimethyl-5-oxo-thiazolo[3,2-a]pyrimidine-3-carboxamide]
75.0	CNC(=O)c1c(C)sc2nc(Cc3cc(Cl)cc(C#N)c3)cc(=O)n12 [Example 21.51, 7-[(3-chloro-5-cyano-phenyl)methyl]-N,2-dimethyl-5-oxo-thiazolo[3,2-a]pyrimidine-3-carboxamide]
72.9	CNC(=O)c1c(C)sc2nc(Cc3cccc(C4CC4)c3)cc(=O)n12 [Example 21.52, 7-[(3-cyclopropylphenyl)methyl]-N,2-dimethyl-5-oxo-thiazolo[3,2-a]pyrimidine-3-carboxamide]
49	CNC(=O)c1c(C)sc2nc(Cc3cc(F)ccc3F)cc(=O)n12 [Example 21.53, 7-[(2,5-difluorophenyl)methyl]-N,2-dimethyl-5-oxo-thiazolo[3,2-a]pyrimidine-3-carboxamide]
46	CNC(=O)c1c(C)sc2nc(Cc3ccc(F)c(F)c3)cc(=O)n12 [Example 21.54, 7-[(3,4-difluorophenyl)methyl]-N,2-dimethyl-5-oxo-thiazolo[3,2-a]pyrimidine-3-carboxamide]
43.8	CNC(=O)c1c(C)sc2nc(Cc3cccc(F)c3F)cc(=O)n12 [Example 21.55, 7-[(2,3-difluorophenyl)methyl]-N,2-dimethyl-5-oxo-thiazolo[3,2-a]pyrimidine-3-carboxamide]
41	CNC(=O)c1c(C)sc2nc(Cc3ccc(Cl)cc3F)cc(=O)n12 [Example 21.56, 7-[(4-chloro-2-fluoro-phenyl)methyl]-N,2-dimethyl-5-oxo-thiazolo[3,2-a]pyrimidine-3-carboxamide]
64.1	CNC(=O)c1c(C)sc2nc(Cc3ccc(Cl)cc3Cl)cc(=O)n12 [Example 21.57, 7-[(2,4-dichlorophenyl)methyl]-N,2-dimethyl-5-oxo-thiazolo[3,2-a]pyrimidine-3-carboxamide]
46.1	CNC(=O)c1c(C)sc2nc(Cc3ccc(C)c(F)c3)cc(=O)n12 [Example 21.58, 7-[(3-fluoro-4-methyl-phenyl)methyl]-N,2-dimethyl-5-oxo-thiazolo[3,2-a]pyrimidine-3-carboxamide]
42.5	CNC(=O)c1c(C)sc2nc(Cc3ccc(F)cc3C(F)(F)F)cc(=O)n12 [Example 21.59, 7-[[4-fluoro-2-(trifluoromethyl)phenyl]methyl]-N,2-dimethyl-5-oxo-thiazolo[3,2-a]pyrimidine-3-carboxamide]
78	CNC(=O)c1c(C)sc2nc(Cc3ccc(F)cc3C3CC3)cc(=O)n12 [Example 21.60, 7-[(2-cyclopropyl-4-fluoro-phenyl)methyl]-N,2-dimethyl-5-oxo-thiazolo[3,2-a]pyrimidine-3-carboxamide]
131	CCNC(=O)c1c(C)sc2nc(Cc3cc(C#N)ccc3CCF)cc(=O)n12 [Example 21.61, 7-(5-cyano-2-(2-fluoroethyl)benzyl)-N-ethyl-2-methyl-5-oxo-5H-thiazolo[3,2-a]pyrimidine-3-carboxamide]
45.6	CCNC(=O)c1c(C)sc2nc(Cc3cccc(C#N)c3Cl)cc(=O)n12 [Example 21.62, 7-(2-chloro-3-cyanobenzyl)-N-ethyl-2-methyl-5-oxo-5H-thiazolo[3,2-a]pyrimidine-3-carboxamide]
124	CCNC(=O)c1c(C)sc2nc(Cc3c(CC)ccc(F)c3F)cc(=O)n12 [Example 21.63, N-ethyl-7-(6-ethyl-2,3-difluorobenzyl)-2-methyl-5-oxo-5H-thiazolo[3,2-a]pyrimidine-3-carboxamide]
120	CCNC(=O)c1c(C)sc2nc(Cc3cc(C#N)ccc3CC)cc(=O)n12 [Example 21.64, 7-(5-cyano-2-ethylbenzyl)-N-ethyl-2-methyl-5-oxo-5H-thiazolo[3,2-a]pyrimidine-3-carboxamide]
96.3	CCNC(=O)c1c(C)sc2nc(Cc3cc(F)ccc3C3CC3)cc(=O)n12 [Example 21.65, 7-(2-cyclopropyl-5-fluorobenzyl)-N-ethyl-2-methyl-5-oxo-5H-thiazolo[3,2-a]pyrimidine-3-carboxamide]
92.4	CCNC(=O)c1c(C)sc2nc(Cc3cc(C#N)ccc3C3CC3)cc(=O)n12 [Example 21.66, 7-(5-cyano-2-cyclopropylbenzyl)-N-ethyl-2-methyl-5-oxo-5H-thiazolo[3,2-a]pyrimidine-3-carboxamide]
75	CCCc1ccc(F)cc1Cc1cc(=O)n2c(C(=O)NCC)c(C)sc2n1 [Example 21.67, N-ethyl-7-(5-fluoro-2-propylbenzyl)-2-methyl-5-oxo-5H-thiazolo[3,2-a]pyrimidine-3-carboxamide]
111	CNC(=O)c1c(C)sc2nc(Cc3cccc(CF)c3F)cc(=O)n12 [Example 21.68, 7-[[2-fluoro-3-(fluoromethyl)phenyl]methyl]-N,2-dimethyl-5-oxo-thiazolo[3,2-a]pyrimidine-3-carboxamide]
96.9	CCNC(=O)c1c(C)sc2nc(C(C)c3cccc(C(F)(F)F)c3F)cc(=O)n12 (stereo not drawn) [Example 22.1, N-ethyl-7-(1-(2-fluoro-3-(trifluoromethyl)phenyl)ethyl)-2-methyl-5-oxo-5H-thiazolo[3,2-a]pyrimidine-3-carboxamide]
41.4	CCN(C)C(=O)c1c(C)sc2nc(Cc3cccc(C(F)(F)F)c3F)cc(=O)n12 [Example 22.2, N-ethyl-7-(2-fluoro-3-(trifluoromethyl)benzyl)-N,2-dimethyl-5-oxo-5H-thiazolo[3,2-a]pyrimidine-3-carboxamide]
133	Cc1sc2nc(Cc3cccc(C#N)n3)cc(=O)n2c1C1CC1C#N (stereo not drawn) [Example 23.3, 6-((3-(2-cyanocyclopropyl)-2-methyl-5-oxo-5H-thiazolo[3,2-a]pyrimidin-7-yl)methyl)picolinonitrile]
